From publication PMC5703966, “Systemic clearance and brain distribution of carbazole-based cyanine compounds as Alzheimer’s disease drug candidates” (Scientific Reports, 2017)

What was measured:
mouse hepatocytes = experiment: Hepatocyte stability; assay type: in vitro ADME; details: well-stirred model
human hepatocytes = experiment: Hepatocyte stability; assay type: in vitro ADME; details: well-stirred model
Procedure: MS/MS. Natural logarithm of peak area ratios (compound peak area normalized by IS peak area) were plotted against time and half-life calculated. […]
placed into the sample chamber (indicated by the red ring) with 400 µL of PBS into the adjacent chamber.
The plate was sealed with a self-adhesive lid and incubated at 37 °C on an orbital shaker (1.5 g approx.) for 4 h. Aliquots (100 µL) were removed from each side of the insert, and analyzed after protein precipitation using 4 folds acetonitrile (ACN) containing berberine chloride as internal standard (IS) by LC-MS/MS (Analytical me thod seen below). The experimental procedure outlined in the Thermo Scientific RED device systems brochure was adopted in the present study . The several positive controls […]
In vitro stability in liver microsomes and hepatocytes
Half-life (t1/2) of SLM or SLOH in liver microsomes was determined in duplicate. In phase I reaction, […]
buffer (pH 7.4) including 81 mM Na2HPO4 and 19 mM NaH2PO4 ) at 37 °C, the reaction mixture was prewarmed at 37 °C for 2 minutes before adding NADPH (1.0 mM). In phase II reaction, the compound […]
5 mM MgCl2, 10 μg/mL alamethicin, and 2% (w/v) BSA. […]
reactions were initiated with the addition of UDPGA (5.0 mM). […]

BCRP = target: T1, BCRP (Homo sapiens, UniProt Q9UNQ0); experiment: Efflux transporter identification in Caco-2 cell with BCRP specific inhibitors; details: efflux ratio reduced by fumitremorgin C and Ko134, concentration-dependent
T1 sequence (Q9UNQ0 1-655): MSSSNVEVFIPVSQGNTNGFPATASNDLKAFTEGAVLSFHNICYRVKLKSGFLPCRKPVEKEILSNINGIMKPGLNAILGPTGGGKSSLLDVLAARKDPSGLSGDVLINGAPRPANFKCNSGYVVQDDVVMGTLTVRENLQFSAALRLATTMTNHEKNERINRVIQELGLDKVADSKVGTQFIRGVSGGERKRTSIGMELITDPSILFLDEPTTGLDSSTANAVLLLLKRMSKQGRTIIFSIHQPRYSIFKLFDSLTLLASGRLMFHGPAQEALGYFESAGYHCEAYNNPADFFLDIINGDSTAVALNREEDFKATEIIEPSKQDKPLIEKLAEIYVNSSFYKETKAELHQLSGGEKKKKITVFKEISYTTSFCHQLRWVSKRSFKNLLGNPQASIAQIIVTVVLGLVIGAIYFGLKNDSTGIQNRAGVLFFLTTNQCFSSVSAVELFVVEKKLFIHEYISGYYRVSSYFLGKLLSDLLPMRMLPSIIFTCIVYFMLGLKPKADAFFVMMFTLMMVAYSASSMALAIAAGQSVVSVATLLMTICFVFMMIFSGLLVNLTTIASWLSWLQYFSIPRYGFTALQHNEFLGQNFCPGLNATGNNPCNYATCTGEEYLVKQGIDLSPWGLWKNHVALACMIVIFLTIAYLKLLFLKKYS

[1] = Liver microsomes stability with NADPH; assay type: in vitro ADME, mouse; details: for microsomal CLint at 1 μM: ICR/CD-1, liver microsomes, NADPH, read-out: Microsomes Cl int,app; for microsomal CLint at 1 μM / CLint scaled at 1 μM: pH 7.4; for CLint scaled at 1 μM: ICR/CD-1, mouse, liver microsomes, read-out: Microsomes Cl int,scaled; for Microsomes scaled Cl hep: well-stirred model; for Microsomes Cl u, int,app: Cl int,app / f u,mic
[2] = Hepatocyte binding by RED device; assay type: in vitro ADME
Procedure: The blood cell partitioning was calculated as follows. […] Plasma, liver microsomes and hepatocyte binding by RED device The stability of the compounds in plasma, liver microsomes and hepatocyte were studied to ensure the reliability of the binding data. Hepatocyte was deactivated by leaving them on a bench for 2 days and going through a freeze thaw cycle thereafter. […] Natural logarithm of peak area ratios (compound peak area normalized by IS peak area) were plotted against time and half-life calculated. The spiked plasma solutions, microsomes and hepatocytes (400 µL) after observing stability were placed into the sample chamber (indicated by the red ring) with 400 µL of PBS into the adjacent chamber. […] The experimental procedure outlined in the Thermo Scientific RED device systems brochure was adopted in the present study . The several positive controls were assayed (Table S4). […] For control experiments, NADPH, UDPGA and/or liver microsomes were omitted from these incubations. […] InVitroGROTM HT Medium was used for thawing suspension of cryopreserved hepatocytes. Incubations were conducted in a 96-well flat-bottom polystyrene plate in duplicate. […] 60, 90, 120 minutes by the addition of 4 folds ACN containing berberine chloride as internal standard 5

AD model mice = test system: AD model mice; design: method as in PMID 28032988; details: cited from earlier work
Aβ(1–40) = test system: Aβ(1–40); design: method as in PMID 22086555; details: cited from earlier work
[3] = human deactivated hepatocytes 0.5 million cells/mL
[4] = mouse deactivated hepatocytes 0.5 million cells/mL

| Hepatocyte scaled Cl hep (mouse hepatocytes) [mL/min/kg] | Hepatocyte scaled Cl hep (human hepatocytes) [mL/min/kg] | BCRP substrate identification (BCRP) | microsomal CLint at 1 μM ([1]; mouse) [µL/min/mg] | CLint scaled at 1 μM [1] [mL/min/kg] | Microsomes Cl u, int,scaled ([1]; mouse) | Microsomes scaled Cl hep ([1]; mouse) [mL/min/kg] | Microsomes Cl u, int,app ([1]; mouse) | f u,hep, % [2, 3] | f u,hep, % [2, 4] [%] | SMILES | effect on pathological symptom and memory deterioration (AD model mice) | affinity for Aβ(1–40) (Aβ(1–40)) |
| --- | --- | --- | --- | --- | --- | --- | --- | --- | --- | --- | --- | --- |
| 9.67 ± 1.67 | 1 ± 0.167 | substrates | 30 | 110 ± 13 | 680 ± 75.0^$$ mL/min/Kg | 18.3 ± 1.67 | 0.170 ± 0.0200^$$ mL/min/mg | 5.50 ± 0.730^$$ % | 16.0 ± 5.50 | COCCOCCn1c2ccccc2c2cc(/C=C/c3cc[n+](CCO)c4ccccc34)ccc21 [SLOH, (E)-1-(2-hydroxyethyl)-4-(2-(9-(2-(2-metho-xyethoxy)-ethyl)-9H-carbazol-3-yl)vinyl) quinolin-1-ium chloride] | alleviate the pathological symptom and memory deterioration | reasonably good affinity |
| 8.67 ± 1.67 | 0.833 ± 0.167 | substrates | 30 | 130 ± 9 |  | 16 ± 0.833 | 0.300 ± 0.0200^$$ mL/min/mg | 11.0 ± 0.870^$$ % | 15.0 ± 4.60 | COCCOCCn1c2ccccc2c2cc(/C=C/c3cc[n+](C)c4ccccc34)ccc21.[I-] [SLM, (E)-4-(2-(9-(2-(2-methoxyethoxy)ethyl)-9H-carbazol-3-yl)-vinyl)-1-methyl-quinolin-1-iumiodide] | alleviate the pathological symptom and memory deterioration | reasonably good affinity |
